Data reported in patent publication US11602530B2, “CRM1 inhibitors for treating epilepsy” (Biogen MA Inc., priority 2016, dated 2023).

Legend:
[1] = Body weight of treated mice in the pilocarpine TLE model; assay type: in vivo; settings: 7.5 mg/kg per os every other day for two weeks
Procedure: Following the general procedure described in Example 1 and outlined in FIG. 1, Compound E1 of Table I was administered to mice during the treatment phase at 7.5 mg/kg per os every other day for the two weeks of treatment.

[2] = tested on: male NMRI mice; experiment: Pilocarpine model of temporal lobe epilepsy (TLE), spontaneous recurrent seizures; assay type: in vivo; settings: for reduction in seizure activity: 7.5 mg/kg per os every other day for two weeks
Procedure: FIG. 1 is a description of a pilocarpine model of temporal lobe epilepsy (TLE) in male NMRI mice. The treatment phase was compound E-1 in Table I administered at 7.5 mg/kg per os or vehicle, every other day for the two week treatment period. Vehicle was 0.6% plasdone PVP K29/32 and 0.6% poloxamer Pluronic F68 in water.
A well-established pilocarpine model of temporal lobe epilepsy (TLE) that has been recently optimized for mice can be used (Mazzuferi et al., Exp. Neurol. 238:156-67). Status epilepticus (SE) can be initiated with a single 300 mg/kg intraperitoneal (i.p.) injection of pilocarpine in male NMRI mice, 30 min after N-methylscopolamine bromide administration (1 mg/kg; i.p.). Within 10 to 45 min after pilocarpine treatment, animals display generalized tonic-clonic seizures that progress to continuous convulsive activity, i.e. SE. To limit the duration of SE, mice can be injected with a bolus dose of diazepam (10 mg/kg; i.p.) after 3 h. The mice typically show spontaneous recurrent seizures within few days after SE and continue to display them throughout their lifetime.
A separate cohort of animals (for example, n=40) can then undergo continuous monitoring for spontaneous recurrent seizures during 28 consecutive days beginning 8-10 weeks following pilocarpine induced SE. The seizure monitoring can be performed by simultaneous recording of locomotor activity with a 3D accelerometer and video. This system allows for automated detection of behavioral seizures by analysis of the accelerometry signal. All behavioral seizures can be scored according to the Racine's protocol after detailed review of corresponding video clips by experienced technical personnel. Secondary generalized seizures, a Racine's score of 3-5, will be quantified and used for calculation of total seizure counts. […]

CC(C)(C)C(=O)NNC(=O)/C=C\n1cnc(-c2cc(C(F)(F)F)cc(C(F)(F)F)c2)n1 [Compound E-1, (Z)-3-(3-(3,5-bis(trifluoromethyl)phenyl)-1H-1,2,4-triazol-1-yl)-N′-pivaloylacrylohydrazide]
change in body weight of the treated mice [1]: no change
reduction in seizure occurrence in comparison to vehicle treated mice ([2]; a significant number of mice, chronic administration (FIG. 4)): 50%
reduction in seizure activity ([2]; all treated mice (24 dosed)): ≥ 50%
reduction in seizure activity ([2]; six of the treated mice): 100%
